The experiment has as its target High affinity nerve growth factor receptor (Homo sapiens, UniProt P04629). As to the kind of experiment: In Vitro Kinase Activity Assay: Compounds to be tested were dissolved in 100% DMSO in a range of concentrations from 10^-8 to 10^-3 M including negative control (DMSO), then diluted with Kinase Buffer (50 mM HEPES, pH 7.5, 1 mM EGTA, 10 mM MgCl2, 0.01% Tween-20, and 2 mM DTT, added fresh) to 4x the final concentration. The final curve included 11 concentrations (10^-11 to 10^-5 M) plus negative ….

Chain of High affinity nerve growth factor receptor (P04629 whole entry): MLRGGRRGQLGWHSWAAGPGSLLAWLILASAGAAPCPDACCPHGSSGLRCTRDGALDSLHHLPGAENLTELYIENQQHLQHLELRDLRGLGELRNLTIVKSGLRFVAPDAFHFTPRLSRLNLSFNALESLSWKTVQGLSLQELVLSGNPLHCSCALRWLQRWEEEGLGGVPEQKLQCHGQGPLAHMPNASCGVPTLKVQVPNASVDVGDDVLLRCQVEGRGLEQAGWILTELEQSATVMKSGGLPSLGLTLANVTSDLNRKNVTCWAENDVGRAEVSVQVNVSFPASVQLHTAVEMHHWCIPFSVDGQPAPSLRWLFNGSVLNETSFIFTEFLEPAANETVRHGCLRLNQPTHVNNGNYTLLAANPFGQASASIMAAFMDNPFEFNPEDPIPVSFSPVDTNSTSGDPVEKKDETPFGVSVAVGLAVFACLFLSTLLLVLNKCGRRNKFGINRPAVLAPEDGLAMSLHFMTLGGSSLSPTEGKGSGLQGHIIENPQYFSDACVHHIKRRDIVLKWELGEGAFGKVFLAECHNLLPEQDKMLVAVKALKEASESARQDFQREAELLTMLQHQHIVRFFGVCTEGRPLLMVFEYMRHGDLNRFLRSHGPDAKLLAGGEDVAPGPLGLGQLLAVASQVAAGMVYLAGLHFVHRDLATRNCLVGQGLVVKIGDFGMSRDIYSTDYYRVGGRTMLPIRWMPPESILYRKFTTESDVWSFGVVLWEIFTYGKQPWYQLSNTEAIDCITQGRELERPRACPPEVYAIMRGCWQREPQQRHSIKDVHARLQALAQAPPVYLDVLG

In general, IC50 refers to the midpoint of a concentration-inhibition curve. Take `CC(Cc1cc(F)ccc1F)Nc1cc[nH]c(=O)c1-c1nc2cc3c(cc2[nH]1)C(=O)N(C1CCN(C)CC1)C3=O` (stereo unspecified): the IC50 is 6.35 nM.

The values are drawn from ChEMBL document CHEMBL3639188, “Tyrosine kinase inhibitors” (2014).
